Measurements published in the NIST ThermoML archive (doi:10.1021/je060411g).
Numbers after ± are expanded uncertainties.

Assay: molar heat capacity at constant pressure
Conditions: 101.33 kPa

CCC(C)(C)O [2-methylbutan-2-ol]
Conditions	molar heat capacity at constant pressure [J/K/mol]
84.18 K, Crystal 3	59.96 ± 1.5
84.41 K, Crystal 3	60.87 ± 1.5
85.57 K, Crystal 3	65.73 ± 1.6
86.62 K, Crystal 3	61.65 ± 1.5
86.85 K, Crystal 3	61.55 ± 1.5
87.94 K, Crystal 3	66.53 ± 1.6
89.04 K, Crystal 3	62.98 ± 1.6
89.26 K, Crystal 3	62.98 ± 1.6
90.33 K, Crystal 3	68.13 ± 2
91.86 K, Crystal 3	64.6 ± 2
92.09 K, Crystal 3	64.56 ± 2
93.17 K, Crystal 3	69.93 ± 2.1
94.67 K, Crystal 3	66.27 ± 2
94.91 K, Crystal 3	66.32 ± 2
95.99 K, Crystal 3	71.8 ± 2.1
97.49 K, Crystal 3	67.95 ± 2
97.72 K, Crystal 3	68.07 ± 2
98.82 K, Crystal 3	73.51 ± 2.1
100.31 K, Crystal 3	70.24 ± 2.1
100.54 K, Crystal 3	70.6 ± 2.1
101.65 K, Crystal 3	75.44 ± 2.2
103.12 K, Crystal 3	72.36 ± 2.1
103.36 K, Crystal 3	72.54 ± 2.1
104.48 K, Crystal 3	76.92 ± 2.2
105.95 K, Crystal 3	73.89 ± 2.1
106.18 K, Crystal 3	74.04 ± 2.1
107.28 K, Crystal 3	78.03 ± 2.2
108.74 K, Crystal 3	75.59 ± 2.2
108.97 K, Crystal 3	75.81 ± 2.2
110.03 K, Crystal 3	79.77 ± 2.2
111.48 K, Crystal 3	77.47 ± 2.2
111.7 K, Crystal 3	77.66 ± 2.2
112.73 K, Crystal 3	81.52 ± 2.3
114.17 K, Crystal 3	79.5 ± 2.2
114.38 K, Crystal 3	79.61 ± 2.2
115.38 K, Crystal 3	83.05 ± 2.3
116.8 K, Crystal 3	81.46 ± 2.3
117.02 K, Crystal 3	81.54 ± 2.3
117.99 K, Crystal 3	84.42 ± 2.3
119.4 K, Crystal 3	83.36 ± 2.3
119.61 K, Crystal 3	83.37 ± 2.3
120.55 K, Crystal 3	85.98 ± 2.4
121.95 K, Crystal 3	85.58 ± 2.4
122.15 K, Crystal 3	85.21 ± 2.4
123.09 K, Crystal 3	87.29 ± 2.4
124.47 K, Crystal 3	87.36 ± 2.4
124.66 K, Crystal 3	87.39 ± 2.4
125.59 K, Crystal 3	88.61 ± 2.4
126.95 K, Crystal 3	89.35 ± 2.4
127.13 K, Crystal 3	89.35 ± 2.4
128.06 K, Crystal 3	90.2 ± 2.4
129.39 K, Crystal 3	91.6 ± 2.5
129.57 K, Crystal 3	91.64 ± 2.5
130.5 K, Crystal 3	91.83 ± 2.5
131.8 K, Crystal 3	96.05 ± 2.5
131.98 K, Crystal 3	95.7 ± 2.5
132.91 K, Crystal 3	94.22 ± 2.5
134.19 K, Crystal 3	97.24 ± 2.6
134.35 K, Crystal 3	97.17 ± 2.6
135.29 K, Crystal 3	94.95 ± 2.5
136.54 K, Crystal 3	98.99 ± 2.6
136.7 K, Crystal 3	98.94 ± 2.6
137.65 K, Crystal 3	96.49 ± 2.6
138.86 K, Crystal 3	102.38 ± 2.7
139.01 K, Crystal 3	102.19 ± 2.7
139.98 K, Crystal 3	98.2 ± 2.6
141.14 K, Crystal 3	106.32 ± 2.7
141.29 K, Crystal 3	106.03 ± 2.7
142.29 K, Crystal 3	99.86 ± 2.6
143.38 K, Crystal 3	112.82 ± 2.9
143.53 K, Crystal 3	110.46 ± 2.8
144.58 K, Crystal 3	101.73 ± 3
148.39 K, Crystal 2	89.39 ± 3
148.47 K, Crystal 2	107.13 ± 3.2
149.08 K, Crystal 2	105.46 ± 2.7
150.5 K, Crystal 2	120.91 ± 3
150.6 K, Crystal 2	120.49 ± 3
151.3 K, Crystal 2	107.39 ± 2.8
152.65 K, Crystal 2	120.48 ± 3
152.74 K, Crystal 2	120.32 ± 3
153.5 K, Crystal 2	109.42 ± 2.8
154.78 K, Crystal 2	120.35 ± 3
154.87 K, Crystal 2	120.25 ± 3
155.66 K, Crystal 2	111.51 ± 2.8
156.9 K, Crystal 2	120.17 ± 3
156.98 K, Crystal 2	120.02 ± 3
157.81 K, Crystal 2	113.29 ± 2.9
159.02 K, Crystal 2	121.07 ± 3
159.09 K, Crystal 2	120.89 ± 3
159.95 K, Crystal 2	115.97 ± 2.9
161.12 K, Crystal 2	121.73 ± 3
161.19 K, Crystal 2	121.42 ± 3
162.06 K, Crystal 2	118.39 ± 3
163.23 K, Crystal 2	122.32 ± 3
163.28 K, Crystal 2	121.93 ± 3
164.16 K, Crystal 2	120.83 ± 3
165.34 K, Crystal 2	123.02 ± 3.1
165.36 K, Crystal 2	122.85 ± 3.1
166.24 K, Crystal 2	123.44 ± 3.1
167.44 K, Crystal 2	123.55 ± 3.1
167.45 K, Crystal 2	123.69 ± 3.1
168.29 K, Crystal 2	126.14 ± 3.1
169.53 K, Crystal 2	124.34 ± 3.1
169.57 K, Crystal 2	124.68 ± 3.1
170.33 K, Crystal 2	128.89 ± 3.2
171.63 K, Crystal 2	125.44 ± 3.1
171.7 K, Crystal 2	125.8 ± 3.1
172.35 K, Crystal 2	131.56 ± 3.2
173.74 K, Crystal 2	126.82 ± 3.1
173.85 K, Crystal 2	127.21 ± 3.1
174.35 K, Crystal 2	134.03 ± 3.3
175.89 K, Crystal 2	128.48 ± 3.2
176.02 K, Crystal 2	128.7 ± 3.2
176.33 K, Crystal 2	136.74 ± 3.3
178.07 K, Crystal 2	130.33 ± 3.3
178.22 K, Crystal 2	130.54 ± 3.2
178.3 K, Crystal 2	139.33 ± 3.5
180.24 K, Crystal 2	141.75 ± 3.5
180.29 K, Crystal 2	131.97 ± 3.2
180.44 K, Crystal 2	132.57 ± 3.4
182.18 K, Crystal 2	143.44 ± 3.5
182.53 K, Crystal 2	133.47 ± 3.3
182.64 K, Crystal 2	134.58 ± 3.3
184.1 K, Crystal 2	145.88 ± 3.5
184.82 K, Crystal 2	137.28 ± 3.3
186.01 K, Crystal 2	147.63 ± 3.5
186.94 K, Crystal 2	141.12 ± 3.4
187.9 K, Crystal 2	148.63 ± 3.6
189 K, Crystal 2	143.98 ± 3.5
189.78 K, Crystal 2	150.78 ± 3.6
191 K, Crystal 2	146.05 ± 3.5
191.66 K, Crystal 2	151.3 ± 3.6
192.96 K, Crystal 2	149.37 ± 3.6
193.52 K, Crystal 2	152.71 ± 3.6
194.88 K, Crystal 2	150.75 ± 3.6
195.38 K, Crystal 2	154.88 ± 3.7
196.78 K, Crystal 2	151.94 ± 3.6
197.23 K, Crystal 2	154.68 ± 3.7
198.65 K, Crystal 2	154.12 ± 3.7
199.07 K, Crystal 2	156.86 ± 3.7
199.87 K, Crystal 2	155.64 ± 3.7
200.5 K, Crystal 2	154.04 ± 3.7
200.9 K, Crystal 2	157.7 ± 3.8
201.17 K, Crystal 2	157.49 ± 3.7
202.35 K, Crystal 2	156.44 ± 3.7
202.62 K, Crystal 2	157.61 ± 3.8
204.18 K, Crystal 2	158.51 ± 3.8
204.44 K, Crystal 2	159.27 ± 3.8
206 K, Crystal 2	158.34 ± 3.8
206.25 K, Crystal 2	159.14 ± 3.8
207.81 K, Crystal 2	159.84 ± 3.8
208.06 K, Crystal 2	160.6 ± 3.8
209.61 K, Crystal 2	159.89 ± 3.8
209.85 K, Crystal 2	161.82 ± 3.8
211.4 K, Crystal 2	158.72 ± 3.8
211.64 K, Crystal 2	164.89 ± 3.9
217.83 K, Crystal 1	141.33 ± 3.4
218.04 K, Crystal 1	144.15 ± 3.5
219.66 K, Crystal 1	143.15 ± 3.5
219.86 K, Crystal 1	142.88 ± 3.5
221.49 K, Crystal 1	143.51 ± 3.5
221.68 K, Crystal 1	143.74 ± 3.5
223.31 K, Crystal 1	144.13 ± 3.5
223.5 K, Crystal 1	144.13 ± 3.5
225.12 K, Crystal 1	144.75 ± 3.5
225.31 K, Crystal 1	144.76 ± 3.5
226.93 K, Crystal 1	145.48 ± 3.5
227.12 K, Crystal 1	145.55 ± 3.5
228.73 K, Crystal 1	146.48 ± 3.5
228.92 K, Crystal 1	146.48 ± 3.5
230.52 K, Crystal 1	147.54 ± 3.5
230.71 K, Crystal 1	147.5 ± 3.5
232.31 K, Crystal 1	148.37 ± 3.6
232.49 K, Crystal 1	148.43 ± 3.6
234.08 K, Crystal 1	149.45 ± 3.6
234.27 K, Crystal 1	149.58 ± 3.6
235.86 K, Crystal 1	150.05 ± 3.6
236.04 K, Crystal 1	150.15 ± 3.6
237.63 K, Crystal 1	151.12 ± 3.6
237.81 K, Crystal 1	151.14 ± 3.6
239.39 K, Crystal 1	152.5 ± 3.6
239.57 K, Crystal 1	152.39 ± 3.6
240.92 K, Crystal 1	153.28 ± 3.7
241.15 K, Crystal 1	153.19 ± 3.7
242.15 K, Crystal 1	153.94 ± 3.7
242.9 K, Crystal 1	154.53 ± 3.7
243.54 K, Crystal 1	154.92 ± 3.7
244.65 K, Crystal 1	155.65 ± 3.7
245.28 K, Crystal 1	156.32 ± 3.7
246.39 K, Crystal 1	157.17 ± 3.7
247.02 K, Crystal 1	157.69 ± 3.8
248.12 K, Crystal 1	159.18 ± 3.8
249.84 K, Crystal 1	160.99 ± 3.8
251.56 K, Crystal 1	163.84 ± 3.9
253.26 K, Crystal 1	168.27 ± 4
